Results published in patent publication US6677310B1, “Ring-expanded nucleosides and nucleotides” (Nabi, priority 1999, dated 2004).

Key:
Assay type in all cases: cell-based, human
RPMI-8226 = test: SRB anti-cancer assay, Leukemia; details: RPMI-8226 (Leukemia), 48 h; for CC50: read-out: LC50 (the source's name)
SF-268 = test: SRB anti-cancer assay, CNS Cancer; details: SF-268 (CNS Cancer), 48 h; for CC50: read-out: LC50 (the source's name)
OVCAR-8 = test: SRB anti-cancer assay, Ovarian Cancer; details: OVCAR-8 (Ovarian Cancer), 48 h
OVCAR-4 = test: SRB anti-cancer assay, Ovarian Cancer; details: OVCAR-4 (Ovarian Cancer), 48 h; for CC50: read-out: LC50 (the source's name)
HCC-2998 = test: SRB anti-cancer assay, Colon Cancer; details: HCC-2998 (Colon Cancer), 48 h; for CC50: read-out: LC50 (the source's name)
KM12 = test: SRB anti-cancer assay, Colon Cancer; details: 48 h
DU-145 = test: SRB anti-cancer assay, Prostate Cancer; details: DU-145 (Prostate Cancer), 48 h; for CC50: read-out: LC50 (the source's name)
HCT-15 = test: SRB anti-cancer assay, Colon Cancer; details: HCT-15 (Colon Cancer), 48 h; for CC50: read-out: LC50 (the source's name)
HCT-116 = test: SRB anti-cancer assay, Colon Cancer; details: HCT-116 (Colon Cancer), 48 h; for CC50: read-out: LC50 (the source's name)
SK-OV-3 = test: SRB anti-cancer assay, Ovarian Cancer; details: SK-OV-3 (Ovarian Cancer), 48 h; for CC50: read-out: LC50 (the source's name)
CAKI-1 = test: SRB anti-cancer assay, Renal Cancer; details: CAKI-1 (Renal Cancer), 48 h; for CC50: read-out: LC50 (the source's name)
A549/ATCC = A549/ATCC (Non-Small Cell Lung Cancer), 48 h; for CC50: read-out: LC50 (the source's name)
UACC-257 = test: SRB anti-cancer assay, Melanoma; details: UACC-257 (Melanoma), 48 h; for CC50: read-out: LC50 (the source's name)
ACHN = test: SRB anti-cancer assay, Renal Cancer; details: 48 h; for CC50: read-out: LC50 (the source's name)
MALME-3M = test: SRB anti-cancer assay, Melanoma; details: MALME-3M (Melanoma), 48 h
SK-MEL-28 = test: SRB anti-cancer assay, Melanoma; details: SK-MEL-28 (Melanoma), 48 h
SN12C = test: SRB anti-cancer assay, Renal Cancer; details: 48 h; for CC50: read-out: LC50 (the source's name)
SNB-75 = test: SRB anti-cancer assay, CNS Cancer; details: SNB-75 (CNS Cancer), 48 h
SR = test: SRB anti-cancer assay, Leukemia; details: 48 h
MDA-MB-435 = test: SRB anti-cancer assay, Breast Cancer; details: MDA-MB-435 (Breast Cancer), 48 h; for CC50: read-out: LC50 (the source's name)
NCI/ADR-RES = test: SRB anti-cancer assay, Breast Cancer; details: 48 h; for CC50: read-out: LC50 (the source's name)
EKVX = EKVX (Non-Small Cell Lung Cancer), 48 h; for CC50: read-out: LC50 (the source's name)
COLO 205 = test: SRB anti-cancer assay, Colon Cancer; details: COLO 205 (Colon Cancer), 48 h
T-47D = test: SRB anti-cancer assay, Breast Cancer; details: T-47D (Breast Cancer), 48 h; for CC50: read-out: LC50 (the source's name)
M14 = test: SRB anti-cancer assay, Melanoma; details: 48 h; for CC50: read-out: LC50 (the source's name)
OVCAR-3 = test: SRB anti-cancer assay, Ovarian Cancer; details: OVCAR-3 (Ovarian Cancer), 48 h; for CC50: read-out: LC50 (the source's name)
SW-620 = test: SRB anti-cancer assay, Colon Cancer; details: SW-620 (Colon Cancer), 48 h; for CC50: read-out: LC50 (the source's name)
NCI-H460 = NCI-H460 (Non-Small Cell Lung Cancer), 48 h; for CC50: read-out: LC50 (the source's name)
CCRF-CEM = test: SRB anti-cancer assay, Leukemia; details: 48 h; for CC50: read-out: LC50 (the source's name)

SMILES: N=c1[nH]c(=O)c2ncn([C@@H]3O[C@H](CO)[C@@H](O)[C@H]3O)c2c(=O)[nH]1 [Compound 14-1, 6-Imino-6H-1-β-D-ribofuranosyl-4,5,7,8-tetrahydroimidazo[4,5-e][1,3]diazepine-4,8-dione]
- GI50 (RPMI-8226): > 100 µM
- TGI (RPMI-8226): >100 µM
- CC50 (RPMI-8226): > 100 µM
- GI50 (SF-268): > 100 µM
- TGI (SF-268): >100 µM
- CC50 (SF-268): > 100 µM
- GI50 (OVCAR-8): > 100 µM
- LC50 (50% lethal concentration) (OVCAR-8): > 100 µM
- TGI (OVCAR-8): >100 µM
- GI50 (OVCAR-4): > 100 µM
- TGI (OVCAR-4): >100 µM
- CC50 (OVCAR-4): > 100 µM
- GI50 (HCC-2998): > 100 µM
- TGI (HCC-2998): >100 µM
- CC50 (HCC-2998): > 100 µM
- GI50 (KM12): > 100 µM
- LC50 (KM12): > 100 µM
- TGI (KM12): >100 µM
- GI50 (DU-145): > 100 µM
- TGI (DU-145): >100 µM
- CC50 (DU-145): > 100 µM
- GI50 (HCT-15): > 100 µM
- TGI (HCT-15): >100 µM
- CC50 (HCT-15): > 100 µM
- GI50 (HCT-116): > 100 µM
- TGI (HCT-116): >100 µM
- CC50 (HCT-116): > 100 µM
- GI50 (SK-OV-3): > 100 µM
- TGI (SK-OV-3): >100 µM
- CC50 (SK-OV-3): > 100 µM
- GI50 (CAKI-1): > 100 µM
- TGI (CAKI-1): >100 µM
- CC50 (CAKI-1): > 100 µM
- GI50 (A549/ATCC): > 100 µM
- TGI (A549/ATCC): >100 µM
- CC50 (A549/ATCC): > 100 µM
- GI50 (UACC-257): > 100 µM
- TGI (UACC-257): >100 µM
- CC50 (UACC-257): > 100 µM
- GI50 (ACHN): > 100 µM
- TGI (ACHN): >100 µM
- CC50 (ACHN): > 100 µM
- GI50 (MALME-3M): > 100 µM
- LC50 (MALME-3M): > 100 µM
- TGI (MALME-3M): >100 µM
- GI50 (SK-MEL-28): > 100 µM
- LC50 (SK-MEL-28): > 100 µM
- TGI (SK-MEL-28): >100 µM
- GI50 (SN12C): > 100 µM
- TGI (SN12C): >100 µM
- CC50 (SN12C): > 100 µM
- LC50 (concentration killing 50% of cells) (SNB-75): > 100 µM
- TGI (SNB-75): >100 µM
- GI50 (SR): > 100 µM
- LC50 (concentration killing 50% of cells) (SR): > 100 µM
- TGI (SR): >100 µM
- GI50 (MDA-MB-435): > 100 µM
- TGI (MDA-MB-435): >100 µM
- CC50 (MDA-MB-435): > 100 µM
- GI50 (NCI/ADR-RES): > 100 µM
- TGI (NCI/ADR-RES): >100 µM
- CC50 (NCI/ADR-RES): > 100 µM
- GI50 (EKVX): > 100 µM
- TGI (EKVX): >100 µM
- CC50 (EKVX): > 100 µM
- GI50 (COLO 205): > 100 µM
- LC50 (COLO 205): > 100 µM
- TGI (COLO 205): >100 µM
- GI50 (T-47D): > 100 µM
- TGI (T-47D): >100 µM
- CC50 (T-47D): > 100 µM
- GI50 (M14): > 100 µM
- TGI (M14): >100 µM
- CC50 (M14): > 100 µM
- GI50 (OVCAR-3): > 100 µM
- TGI (OVCAR-3): >100 µM
- CC50 (OVCAR-3): > 100 µM
- GI50 (SW-620): > 100 µM
- TGI (SW-620): >100 µM
- CC50 (SW-620): > 100 µM
- GI50 (NCI-H460): > 100 µM
- TGI (NCI-H460): >100 µM
- CC50 (NCI-H460): > 100 µM
- GI50 (CCRF-CEM): > 100 µM
- TGI (CCRF-CEM): >100 µM
- CC50 (CCRF-CEM): > 100 µM

SMILES: N=c1nc(N)c2ncn([C@@H]3O[C@H](COC(=O)c4ccccc4)[C@@H](OC(=O)c4ccccc4)[C@H]3OC(=O)c3ccccc3)c2c(N)n1 [4,8-Diamino-6H-6-imino-1(2′,3′,5′-tri-O-benzoyl-β-D-ribofuranosyl)imidazo[4,5-e][1,3]diazepine]
- GI50 (RPMI-8226): 2.53 µM
- TGI (RPMI-8226): 7.42 µM
- CC50 (RPMI-8226): > 100 µM
- GI50 (SF-268): 13.2 µM
- TGI (SF-268): 31.3 µM
- CC50 (SF-268): 74.2 µM
- GI50 (OVCAR-8): 4.34 µM
- LC50 (50% lethal concentration) (OVCAR-8): > 100 µM
- TGI (OVCAR-8): 22.5 µM
- GI50 (OVCAR-4): 13.8 µM
- TGI (OVCAR-4): 28 µM
- CC50 (OVCAR-4): 57 µM
- GI50 (HCC-2998): 3.18 µM
- TGI (HCC-2998): 6.41 µM
- CC50 (HCC-2998): 19.2 µM
- GI50 (KM12): 5.5 µM
- LC50 (KM12): 53.6 µM
- TGI (KM12): 19.4 µM
- GI50 (DU-145): 8.79 µM
- TGI (DU-145): 21.8 µM
- CC50 (DU-145): 49.1 µM
- GI50 (HCT-15): 5.77 µM
- TGI (HCT-15): 19.5 µM
- CC50 (HCT-15): 50.8 µM
- GI50 (HCT-116): 3.76 µM
- TGI (HCT-116): 21.2 µM
- CC50 (HCT-116): 87.5 µM
- GI50 (SK-OV-3): 16.3 µM
- TGI (SK-OV-3): 30.5 µM
- CC50 (SK-OV-3): 57 µM
- GI50 (CAKI-1): 12.1 µM
- TGI (CAKI-1): 26.8 µM
- CC50 (CAKI-1): 59.4 µM
- GI50 (A549/ATCC): 6.44 µM
- TGI (A549/ATCC): 30 µM
- CC50 (A549/ATCC): > 100 µM
- GI50 (UACC-257): 4.51 µM
- TGI (UACC-257): 18.3 µM
- CC50 (UACC-257): 73.5 µM
- GI50 (ACHN): 10.9 µM
- TGI (ACHN): 23.5 µM
- CC50 (ACHN): 50.7 µM
- GI50 (MALME-3M): 3.04 µM
- LC50 (MALME-3M): 33.8 µM
- TGI (MALME-3M): 8.07 µM
- GI50 (SK-MEL-28): 10.4 µM
- LC50 (SK-MEL-28): 65.8 µM
- TGI (SK-MEL-28): 26.2 µM
- GI50 (SN12C): 6.44 µM
- TGI (SN12C): 39.4 µM
- CC50 (SN12C): > 100 µM
- GI50 (SNB-75): 12.3 µM
- LC50 (concentration killing 50% of cells) (SNB-75): 50.4 µM
- TGI (SNB-75): 24.9 µM
- GI50 (SR): 4.27 µM
- LC50 (concentration killing 50% of cells) (SR): > 100 µM
- TGI (SR): >100 µM
- GI50 (MDA-MB-435): 14.9 µM
- TGI (MDA-MB-435): 29.8 µM
- CC50 (MDA-MB-435): 59.8 µM
- GI50 (NCI/ADR-RES): 13.9 µM
- TGI (NCI/ADR-RES): 31.5 µM
- CC50 (NCI/ADR-RES): 71.4 µM
- GI50 (EKVX): 10.9 µM
- TGI (EKVX): 29.6 µM
- CC50 (EKVX): 80.4 µM
- GI50 (COLO 205): 1.49 µM
- LC50 (COLO 205): 5.55 µM
- TGI (COLO 205): 2.87 µM
- GI50 (T-47D): 5.14 µM
- TGI (T-47D): 18.9 µM
- CC50 (T-47D): 48.8 µM
- GI50 (M14): 1.91 µM
- TGI (M14): 3.54 µM
- CC50 (M14): 6.54 µM
- GI50 (OVCAR-3): 10.9 µM
- TGI (OVCAR-3): 23 µM
- CC50 (OVCAR-3): 48.7 µM
- GI50 (SW-620): 5.14 µM
- TGI (SW-620): 29.5 µM
- CC50 (SW-620): > 100 µM
- GI50 (NCI-H460): 2.52 µM
- TGI (NCI-H460): 8.42 µM
- CC50 (NCI-H460): 34.7 µM
- GI50 (CCRF-CEM): 0.125 µM
- TGI (CCRF-CEM): 1.84 µM
- CC50 (CCRF-CEM): 6.4 µM
